Values quoted from earlier work as cited in US20040024003A1, “Flat medicinal preparation for transmucosal administration of oxycodon or a comparable active ingredient in the oral cavity, for use in pain therapy and in addiction therapy” (priority 1999, published 2004).

Legend:
[1] = in vivo

For `COc1ccc2c3c1O[C@H]1C(=O)CC[C@@]4(O)[C@@H](C2)N(C)CC[C@]314` [oxycodone], the “average duration of action” value [1] is given as 4 to 6 h, the “time taken to enter the blood” value (normal peroral administration) is given as 15 to 30 min and the “bioavailable fraction following peroral administration” value (peroral administration) is given as “two thirds”.
